In patent US20260078130A1, “NAMPT MODULATORS, PREPARATIONS, AND USES THEREOF” (SIRONAX LTD., priority 2022, published 2026):

Target: T1, human enzyme NAMPT (full length) (Homo sapiens, UniProt P43490)
T1 construct: human enzyme NAMPT (full length)
Assay: NMN fluorescence biochemical assay (stimulation of NMN synthesis by NAMPT)
Details: for EC50: NMN fluorescence assay, purified human NAMPT 100 nM, concentration giving half-maximal activation, read-out: Enzymatic EC50; for Enzymatic Emax: fold change of maximal activation compared to DMSO
Summary of the method: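 Full-length human NAMPT (100 nM) was preincubated 15 min at 37 °C with compound in 50 mM Tris-HCl pH 7.5, 10 mM MgCl2, 2 mM DTT, then reacted 1 h at 37 °C with 50 μM NAM, 100 μM PRPP, 4 mM ATP (stated solution concentrations). NMN was derivatised with acetophenone/KOH then formic acid and read at Ex/Em 382/445 nm; EC50 and Emax (fold over DMSO) reported.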

T1 sequence (P43490 whole entry): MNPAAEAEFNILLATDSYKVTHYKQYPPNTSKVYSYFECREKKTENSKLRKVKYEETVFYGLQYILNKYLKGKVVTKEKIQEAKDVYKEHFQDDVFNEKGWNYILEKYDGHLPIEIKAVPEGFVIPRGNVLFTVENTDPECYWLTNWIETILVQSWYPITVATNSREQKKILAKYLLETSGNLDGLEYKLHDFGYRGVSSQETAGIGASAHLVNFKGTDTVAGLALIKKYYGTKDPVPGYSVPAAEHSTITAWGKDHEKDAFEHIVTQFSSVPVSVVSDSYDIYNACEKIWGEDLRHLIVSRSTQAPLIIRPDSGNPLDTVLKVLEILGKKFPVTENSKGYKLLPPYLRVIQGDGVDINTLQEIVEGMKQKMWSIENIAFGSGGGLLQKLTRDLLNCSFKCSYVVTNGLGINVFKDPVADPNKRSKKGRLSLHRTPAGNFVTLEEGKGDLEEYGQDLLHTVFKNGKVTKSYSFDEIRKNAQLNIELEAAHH

Cc1cc(Cl)n(CC2c3ccccc3C(=O)N2Cc2ccc3[nH]nnc3c2)n1 (stereo not drawn) [Compound 355, 2-((1H-benzo[d][1,2,3]triazol-5-yl)methyl)-3-((5-chloro-3-methyl-1H-pyrazol-1-yl)methyl)isoindolin-1-one]
EC50: ≥ 5 µM
Enzymatic Emax: A (A>3)

Cc1nc2cc(CN3C(=O)c4ccccc4C3Cc3ncccc3Br)ccc2[nH]1 (stereo not drawn) [Compound 358, 3-((3-bromopyridin-2-yl)methyl)-2-((2-methyl-1H-benzo[d]imidazol-5-yl)methyl)isoindolin-1-one]
EC50: 0.5 to 5 µM
Enzymatic Emax: A (A>3)

O=C1c2ccccc2C(Cc2nn(C(CO)CO)cc2Cl)N1Cc1ccc2[nH]nnc2c1 (stereo not drawn) [Compound 363, 2-((1H-benzo[d][1,2,3]triazol-5-yl)methyl)-3-((4-chloro-1-(1,3-dihydroxypropan-2-yl)-1H-pyrazol-3-yl)methyl)isoindolin-1-one]
EC50: 0.5 to 5 µM
Enzymatic Emax: B (3≥B>2)

Cc1cnn(C)c1CC1c2ccccc2C(=O)N1Cc1ccc2[nH]nnc2c1 (stereo not drawn) [Compound 365, 2-((1H-benzo[d][1,2,3]triazol-5-yl)methyl)-3-((1,4-dimethyl-1H-pyrazol-5-yl)methyl)isoindolin-1-one]
EC50: 0.5 to 5 µM
Enzymatic Emax: B (3≥B>2)

N#Cc1nc2cc(CN3C(=O)c4ccccc4C3Cc3ncccc3Br)ccc2[nH]1 (stereo not drawn) [Compound 366, 5-((1-((3-bromopyridin-2-yl)methyl)-3-oxoisoindolin-2-yl)methyl)-1H-benzo[d]imidazole-2-carbonitrile]
EC50: 0.5 to 5 µM
Enzymatic Emax: C (2≥C)

O=C1c2ccccc2C(Cc2ncccc2Br)N1Cc1ccc2[nH]c(O)nc2c1 (stereo not drawn) [Compound 367, 3-((3-bromopyridin-2-yl)methyl)-2-((2-hydroxy-1H-benzo[d]imidazol-5-yl)methyl)isoindolin-1-one]
EC50: ≥ 5 µM
Enzymatic Emax: C (2≥C)

Cc1onc(C#N)c1C(O)C1c2ccccc2C(=O)N1Cc1ccc2[nH]nnc2c1 (stereo not drawn) [Compound 374, 4-((2-((1H-benzo[d][1,2,3]triazol-5-yl)methyl)-3-oxoisoindolin-1-yl)(hydroxy)methyl)-5-methylisoxazole-3-carbonitrile]
EC50: 0.5 to 5 µM
Enzymatic Emax: B (3≥B>2)

Cn1ncc(Cl)c1CC1c2cc(C3CNC3)ccc2C(=O)N1Cc1ccc2[nH]nnc2c1 (stereo not drawn) [Compound 383, 2-((1H-benzo[d][1,2,3]triazol-5-yl)methyl)-5-(azetidin-3-yl)-3-((4-chloro-1-methyl-1H-pyrazol-5-yl)methyl)isoindolin-1-one]
EC50: < 0.5 µM
Enzymatic Emax: B (3≥B>2)

Cc1[nH]nnc1/C=C/CN1C(=O)c2ccccc2C1Cc1ncccc1Br (stereo not drawn) [Compound 386, (E)-3-((3-bromopyridin-2-yl)methyl)-2-(3-(5-methyl-1H-1,2,3-triazol-4-yl)allyl)isoindolin-1-one]
EC50: 0.5 to 5 µM
Enzymatic Emax: B (3≥B>2)

COC(C)(C)c1ccc2c(c1)C(Cc1c(Cl)cnn1C)N(Cc1ccc3[nH]nnc3c1)C2=O (stereo not drawn) [Compound 396, 2-((1H-benzo[d][1,2,3]triazol-5-yl)methyl)-3-((4-chloro-1-methyl-1H-pyrazol-5-yl)methyl)-5-(2-methoxypropan-2-yl)isoindolin-1-one]
EC50: 0.5 to 5 µM
Enzymatic Emax: B (3≥B>2)

O=C1c2ccccc2C(Cc2ncccc2Br)N1[C@H]1C[C@H](c2c[nH]nn2)C1 (stereo partly drawn) [Compound 403, 2-((1r,3r)-3-(1H-1,2,3-triazol-4-yl)cyclobutyl)-3-((3-bromopyridin-2-yl)methyl)isoindolin-1-one]
EC50: ≥ 5 µM
Enzymatic Emax: C (2≥C)

O=C1CC2(CN1)CC(CN1C(=O)c3ccccc3C1Cc1ncccc1Br)C2 (stereo not drawn) [Compound 424, 3-((3-bromopyridin-2-yl)methyl)-2-((7-oxo-6-azaspiro[3.4]octan-2-yl)methyl) isoindolin-1-one]
EC50: ≥ 5 µM
Enzymatic Emax: C (2≥C)

O=C1c2ccccc2C(Cc2ncccc2Br)N1Cc1ccc(O)cc1 (stereo not drawn) [Compound 429, 3-((3-bromopyridin-2-yl)methyl)-2-(4-hydroxybenzyl)isoindolin-1-one]
EC50: < 0.5 µM
Enzymatic Emax: C (2≥C)

Cn1ncc(Cl)c1CC1c2cccc(CC#N)c2C(=O)N1CC1CC2(CNC(=O)O2)C1 (stereo not drawn) [Compound 432, 2-(1-((4-chloro-1-methyl-1H-pyrazol-5-yl)methyl)-3-oxo-2-((6-oxo-5-oxa-7-azaspiro[3.4]octan-2-yl)methyl)isoindolin-4-yl)acetonitrile]
EC50: ≥ 5 µM
Enzymatic Emax: B (3≥B>2)

COc1cccc2c1C(=O)N(CC1CC3(CNC(=O)O3)C1)C2Cc1c(Cl)cnn1C (stereo not drawn) [Compound 433, 2-((1-((4-chloro-1-methyl-1H-pyrazol-5-yl)methyl)-4-methoxy-3-oxoisoindolin-2-yl)methyl)-5-oxa-7-azaspiro[3.4]octan-6-one]
EC50: 0.5 to 5 µM
Enzymatic Emax: B (3≥B>2)

Cn1ncc(Cl)c1CC1c2cccc(Br)c2C(=O)N1CC1CC2(CNC(=O)O2)C1 (stereo not drawn) [Compound 434, 2-((4-bromo-1-((4-chloro-1-methyl-1H-pyrazol-5-yl)methyl)-3-oxoisoindolin-2-yl)methyl)-5-oxa-7-azaspiro[3.4]octan-6-one]
EC50: 0.5 to 5 µM
Enzymatic Emax: B (3≥B>2)

CC(=O)Nc1ncc(CN2C(=O)c3ccccc3C2Cc2ncccc2Br)cn1 (stereo not drawn) [Compound 443, N-(5-((1-((3-bromopyridin-2-yl)methyl)-3-oxoisoindolin-2-yl)methyl)pyrimidin-2-yl)acetamide]
EC50: 0.5 to 5 µM
Enzymatic Emax: C (2≥C)

Cn1ncc(Cl)c1CC1(C)c2ccccc2C(=O)N1CC1CC2(CNC(=O)O2)C1 (stereo not drawn) [Compound 445, 2-((1-((4-chloro-1-methyl-1H-pyrazol-5-yl)methyl)-1-methyl-3-oxoisoindolin-2-yl)methyl)-5-oxa-7-azaspiro[3.4]octan-6-one]
EC50: ≥ 5 µM
Enzymatic Emax: B (3≥B>2)

O=C1c2sc(Br)nc2CN1Cc1ccc(O)cc1 [Compound 447, 2-bromo-5-(4-hydroxybenzyl)-4,5-dihydro-6H-pyrrolo[3,4-d]thiazol-6-one]
EC50: ≥ 5 µM
Enzymatic Emax: B (3≥B>2)

Cn1ncc(Cl)c1CC1c2ccccc2C(=O)N1CC#Cc1c[nH]cn1 (stereo not drawn) [Compound 452, 2-(3-(1H-imidazol-4-yl)prop-2-yn-1-yl)-3-((4-chloro-1-methyl-1H-pyrazol-5-yl)methyl)insoindolin-1-one]
EC50: 0.5 to 5 µM
Enzymatic Emax: C (2≥C)

Cc1ccnc(C#N)c1CC1c2ccccc2C(=O)N1CC1CCc2[nH]nnc2C1 (stereo not drawn) [Compound 454, 4-methyl-3-((3-oxo-2-((4,5,6,7-tetrahydro-1H-benzo[d][1,2,3]triazol-5-yl)methyl)isoindolin-1-yl)methyl)picolinonitrile]
EC50: ≥ 5 µM
Enzymatic Emax: C (2≥C)

Cn1ncc(Cl)c1CC1c2ccccc2C(=O)N1[C@H]1C[C@H](c2c[nH]c(=O)o2)C1 (stereo partly drawn) [Compound 455, 5-((1r,3r)-3-(1-((4-chloro-1-methyl-1H-pyrazol-5-yl)methyl)-3-oxoisoindolin-2-yl)cyclobutyl)oxazol-2(3H)-one]
EC50: ≥ 5 µM
Enzymatic Emax: C (2≥C)

O=C1c2ccccc2C(Cc2ncccc2Br)N1CCNc1c[nH]nn1 (stereo not drawn) [Compound 456, 2-(2-((1H-1,2,3-triazol-4-yl)amino)ethyl)-3-((3-bromopyridin-2-yl)methyl)isoindolin-1-one]
EC50: ≥ 5 µM
Enzymatic Emax: C (2≥C)

Cn1ncc(Cl)c1CC1c2ccccc2C(=O)N1CC1CCc2[nH]nnc21 (stereo not drawn) [Compound 457, 3-((4-chloro-1-methyl-1H-pyrazol-5-yl)methyl)-2-((1,4,5,6-tetrahydrocyclopenta[d][1,2,3]triazol-4-yl)methyl)isoindolin-1-one]
EC50: ≥ 5 µM
Enzymatic Emax: C (2≥C)

O=C1c2ccccc2C(Cc2ncccc2Br)N1C/C=C/c1n[nH]c(=O)o1 (stereo not drawn) [Compound 458, (E)-5-(3-(1-((3-bromopyridin-2-yl)methyl)-3-oxoisoindolin-2-yl)prop-1-en-1-yl)-1,3,4-oxadiazol-2(3H)-one]
EC50: ≥ 5 µM
Enzymatic Emax: B (3≥B>2)

Cn1c(CC2c3ccccc3C(=O)N2CC2CC3(CNC(=O)O3)C2)ccc(Cl)c1=O (stereo not drawn) [Compound 472, 2-((1-((5-chloro-1-methyl-6-oxo-1,6-dihydropyridin-2-yl)methyl)-3-oxoisoindolin-2-yl)methyl)-5-oxa-7-azaspiro[3.4]octan-6-one]
EC50: ≥ 5 µM
Enzymatic Emax: C (2≥C)

Cn1c(CC2c3ccccc3C(=O)N2CC2CC3(CNC(=O)O3)C2)cccc1=O (stereo not drawn) [Compound 494, 2-((1-((1-methyl-6-oxo-1,6-dihydropyridin-2-yl)methyl)-3-oxoisoindolin-2-yl)methyl)-5-oxa-7-azaspiro[3.4]octan-6-one]
EC50: ≥ 5 µM
Enzymatic Emax: C (2≥C)

Cn1ncc(Cl)c1CC1c2cc(F)cc(F)c2C(=O)N1CC1CC2(CNC(=O)O2)C1 (stereo not drawn) [Compound 496, 2-((1-((4-chloro-1-methyl-1H-pyrazol-5-yl)methyl)-4,6-difluoro-3-oxoisoindolin-2-yl)methyl)-5-oxa-7-azaspiro[3.4]octan-6-one]
EC50: < 0.5 µM
Enzymatic Emax: B (3≥B>2)

CN(C)C1CN(c2ccc3c(c2)C(Cc2c(Cl)cnn2C)N(CC2CC4(CNC(=O)O4)C2)C3=O)C1 (stereo not drawn) [Compound 497, 2-((3-((4-chloro-1-methyl-1H-pyrazol-5-yl)methyl)-5-(3-(dimethylamino)azetidin-1-yl)-1-oxoisoindolin-2-yl)methyl)-5-oxa-7-azaspiro[3.4]octan-6-one]
EC50: < 0.5 µM
Enzymatic Emax: B (3≥B>2)

CN(C)c1ccc2c(c1)C(Cc1c(Cl)cnn1C)N(CC1CC3(CNC(=O)O3)C1)C2=O (stereo not drawn) [Compound 498, 2-((3-((4-chloro-1-methyl-1H-pyrazol-5-yl)methyl)-5-(dimethylamino)-1-oxoisoindolin-2-yl)methyl)-5-oxa-7-azaspiro[3.4]octan-6-one]
EC50: < 0.5 µM
Enzymatic Emax: B (3≥B>2)
